Data taken from patent publication US8952024B2, “Herbicidal pyrimidone derivatives” (E I du Pont de Nemours and Company, priority 2009, dated 2015).

Tests used:
Assay in all cases: Test B pre-/postemergence plant response
Assay type in all cases: in vivo
[1] = tested on: Italian ryegrass (Lolium multiflorum)
How it was run: (§1)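 Seeds were sown in loam soil/sand blend and treated preemergence with compound in non-phytotoxic solvent mixture containing surfactant; postemergence sprays, same formulation, went onto plants 2 to 18 cm (1- to 4-leaf stage) in peat-based planting medium. Greenhouse 13 to 15 days, then visual rating versus untreated controls, 0 (no effect) to 100 (complete control).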

[2] = tested on: bermudagrass (Cynodon dactylon)
How it was run: as §1

corn (Zea mays) = tested on: corn (Zea mays)
How it was run: as §1

[3] = tested on: downy bromegrass (Bromus tectorum)
How it was run: as §1

[4] = tested on: giant foxtail (Setaria faberii)
How it was run: as §1

[5] = tested on: goosegrass (Eleusine indica)
How it was run: as §1

[6] = tested on: green foxtail (Setaria viridis)
How it was run: as §1

[7] = tested on: johnsongrass (Sorghum halepense)
How it was run: as §1

[8] = tested on: large crabgrass (Digitaria sanguinalis)
How it was run: as §1

[9] = tested on: morningglory (Ipomoea coccinea)
How it was run: as §1

[10] = tested on: ragweed (common ragweed, Ambrosia elatior)
How it was run: as §1

[11] = tested on: woolly cupgrass (Eriochloa villosa)
How it was run: as §1

[12] = tested on: yellow nutsedge (Cyperus esculentus)
How it was run: as §1

[13] = 31 g ai/ha, postemergence, scale 0 to 100, 0 is no effect, 100 is complete control
[14] = Postemergence, 62 g ai/ha, scale 0 (no effect) to 100 (complete control), 13 to 15 days
[15] = Postemergence, 125 g ai/ha, visual rating after 13 to 15 days, scale 0 (no effect) to 100 (complete control)
[16] = Postemergence, 250 g ai/ha, scale 0 to 100 (0 no effect, 100 complete control)
[17] = Preemergence, 31 g ai/ha, scale 0 to 100 (0 no effect, 100 complete control)
[18] = Preemergence, 62 g ai/ha, scale 0 to 100 (0 no effect, 100 complete control)
[19] = Preemergence, 125 g ai/ha, scale 0 to 100, 0 no effect, 100 complete control
[20] = 250 g ai/ha, Preemergence, 0 to 100 scale

Cn1c(-c2ccccc2)ncc(C(=O)C2=C(O)CCCC2=O)c1=O [Compound 55]
Plant response rating, Ryegrass, Italian [1, 13]: 0 | Plant response rating, Ryegrass, Italian [1, 14]: 0 | Plant response rating, Ryegrass, Italian [1, 15]: 0 | Plant response rating, Ryegrass, Italian [1, 16]: 0 | Plant response rating, Ryegrass, Italian [1, 17]: 0 | Plant response rating, Ryegrass, Italian [1, 18]: 0 | Plant response rating, Ryegrass, Italian [1, 19]: 0 | Plant response rating, Bermudagrass [2, 13]: 80 | Plant response rating, Bermudagrass [2, 20]: 100 | Plant response rating, Bermudagrass [2, 14]: 80 | Plant response rating, Bermudagrass [2, 15]: 85 | Plant response rating, Bermudagrass [2, 16]: 90 | Plant response rating, Bermudagrass [2, 17]: 95 | Plant response rating, Bermudagrass [2, 18]: 98 | Plant response rating, Bermudagrass [2, 19]: 100 | Plant response rating, Corn (corn (Zea mays); [13]): 0 | Plant response rating, Corn (corn (Zea mays); [20]): 0 | Plant response rating, Corn (corn (Zea mays); [14]): 5 | Plant response rating, Corn (corn (Zea mays); [15]): 5 | Plant response rating, Corn (corn (Zea mays); [16]): 10 | Plant response rating, Corn (corn (Zea mays); [17]): 0 | Plant response rating, Corn (corn (Zea mays); [18]): 0 | Plant response rating, Corn (corn (Zea mays); [19]): 0 | Plant response rating, Bromegrass, Downy [3, 13]: 0 | Plant response rating, Bromegrass, Downy [3, 20]: 0 | Plant response rating, Bromegrass, Downy [3, 14]: 0 | Plant response rating, Bromegrass, Downy [3, 15]: 0 | Plant response rating, Bromegrass, Downy [3, 16]: 0 | Plant response rating, Bromegrass, Downy [3, 17]: 0 | Plant response rating, Bromegrass, Downy [3, 18]: 0 | Plant response rating, Bromegrass, Downy [3, 19]: 0 | Plant response rating, Foxtail, Giant [4, 13]: 25 | Plant response rating, Foxtail, Giant [4, 20]: 10 | Plant response rating, Foxtail, Giant [4, 14]: 30 | Plant response rating, Foxtail, Giant [4, 15]: 55 | Plant response rating, Foxtail, Giant [4, 16]: 75 | Plant response rating, Foxtail, Giant [4, 17]: 0 | Plant response rating, Foxtail, Giant [4, 18]: 0 | Plant response rating, Foxtail, Giant [4, 19]: 0 | Plant response rating, Goosegrass [5, 13]: 45 | Plant response rating, Goosegrass [5, 20]: 98 | Plant response rating, Goosegrass [5, 14]: 60 | Plant response rating, Goosegrass [5, 15]: 65 | Plant response rating, Goosegrass [5, 16]: 75 | Plant response rating, Goosegrass [5, 17]: 45 | Plant response rating, Goosegrass [5, 18]: 95 | Plant response rating, Goosegrass [5, 19]: 98 | Plant response rating, Foxtail, Green [6, 13]: 30 | Plant response rating, Foxtail, Green [6, 20]: 0 | Plant response rating, Foxtail, Green [6, 14]: 40 | Plant response rating, Foxtail, Green [6, 15]: 80 | Plant response rating, Foxtail, Green [6, 16]: 80 | Plant response rating, Foxtail, Green [6, 17]: 0 | Plant response rating, Foxtail, Green [6, 18]: 0 | Plant response rating, Foxtail, Green [6, 19]: 0 | Plant response rating, Johnsongrass [7, 13]: 0 | Plant response rating, Johnsongrass [7, 20]: 0 | Plant response rating, Johnsongrass [7, 14]: 0 | Plant response rating, Johnsongrass [7, 15]: 10 | Plant response rating, Johnsongrass [7, 16]: 20 | Plant response rating, Johnsongrass [7, 17]: 0 | Plant response rating, Johnsongrass [7, 18]: 0 | Plant response rating, Johnsongrass [7, 19]: 0 | Plant response rating, Crabgrass, Large [8, 13]: 60 | Plant response rating, Crabgrass, Large [8, 20]: 98 | Plant response rating, Crabgrass, Large [8, 14]: 75 | Plant response rating, Crabgrass, Large [8, 15]: 80 | Plant response rating, Crabgrass, Large [8, 16]: 85 | Plant response rating, Crabgrass, Large [8, 17]: 10 | Plant response rating, Crabgrass, Large [8, 18]: 60 | Plant response rating, Crabgrass, Large [8, 19]: 95 | Plant response rating, Morningglory [9, 13]: 55 | Plant response rating, Morningglory [9, 14]: 60 | Plant response rating, Morningglory [9, 15]: 75 | Plant response rating, Morningglory [9, 16]: 85 | Plant response rating, Morningglory [9, 17]: 0 | Plant response rating, Morningglory [9, 18]: 0 | Plant response rating, Morningglory [9, 19]: 45 | Plant response rating, Ragweed [10, 13]: 70 | Plant response rating, Ragweed [10, 14]: 80 | Plant response rating, Ragweed [10, 15]: 95 | Plant response rating, Ragweed [10, 16]: 98 | Plant response rating, Ragweed [10, 17]: 55 | Plant response rating, Ragweed [10, 18]: 65 | Plant response rating, Ragweed [10, 19]: 85 | Plant response rating, Cupgrass, Woolly [11, 13]: 10 | Plant response rating, Cupgrass, Woolly [11, 20]: 55 | Plant response rating, Cupgrass, Woolly [11, 14]: 10 | Plant response rating, Cupgrass, Woolly [11, 15]: 15 | Plant response rating, Cupgrass, Woolly [11, 16]: 20 | Plant response rating, Cupgrass, Woolly [11, 17]: 0 | Plant response rating, Cupgrass, Woolly [11, 18]: 0 | Plant response rating, Cupgrass, Woolly [11, 19]: 0 | Plant response rating, Nutsedge, Yellow [12, 13]: 10 | Plant response rating, Nutsedge, Yellow [12, 14]: 10 | Plant response rating, Nutsedge, Yellow [12, 15]: 55 | Plant response rating, Nutsedge, Yellow [12, 16]: 65 | Plant response rating, Nutsedge, Yellow [12, 17]: 0 | Plant response rating, Nutsedge, Yellow [12, 18]: 45 | Plant response rating, Nutsedge, Yellow [12, 19]: 45
